Key:
Assay in all cases: relative viability (nuclei count vs DMSO), 5 days (fraction); higher = more cells survive
COR-L23 = system: COR-L23
In short: (§1)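 Lung cancer cell lines in 1536-well plates were dosed by pin tool the day after seeding, either with one drug alone or with a fixed anchor-drug dose plus five library-drug doses (not always all listed) in √10 steps. After 5 days, cells were fixed and their nuclei stained in one step (final 0.05% Triton X-100, 1% formaldehyde, 1 ug/ml Hoechst), then counted on 4× images. Relative viability is the nuclei count in treated wells divided by that in vehicle wells. Values are medians of duplicate plates.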

NCI-H1651 = system: NCI-H1651
In short: as §1

ChaGo-K-1 = system: ChaGo-K-1
In short: as §1

IA-LM = system: IA-LM
In short: as §1

NCI-H1437 = system: NCI-H1437
In short: as §1

EBC-1 = system: EBC-1
In short: as §1

NCI-H1703 = system: NCI-H1703
In short: as §1

ABC-1 = system: ABC-1
In short: as §1

SW 1573 = system: SW 1573
In short: as §1

Calu-6 = system: Calu-6
In short: as §1

NCI-H1299 = system: NCI-H1299
In short: as §1

Compound: COc1nc(C)cnc1NS(=O)(=O)c1cccnc1-c1ccc(-c2nnco2)cc1 [Zibotentan] + CC(C)C[C@H](NC(=O)[C@H](Cc1ccccc1)NC(=O)c1cnccn1)B(O)O [Bortezomib] (partner 0.002 µM)
- relative viability (COR-L23; first compound 0.08 µM): 0.999
- relative viability (COR-L23; first compound 0.253 µM): 0.917
- relative viability (COR-L23; first compound 0.8 µM): 0.98
- relative viability (COR-L23; first compound 2.53 µM): 1.07
- relative viability (NCI-H1651; first compound 0.08 µM): 0.981
- relative viability (NCI-H1651; first compound 0.253 µM): 0.871
- relative viability (NCI-H1651; first compound 0.8 µM): 0.902
- relative viability (NCI-H1651; first compound 2.53 µM): 0.972
- relative viability (ChaGo-K-1; first compound 0.08 µM): 0.956
- relative viability (ChaGo-K-1; first compound 0.8 µM): 0.977
- relative viability (ChaGo-K-1; first compound 2.53 µM): 0.99
- relative viability (IA-LM; first compound 0.08 µM): 0.791
- relative viability (IA-LM; first compound 0.253 µM): 0.758
- relative viability (IA-LM; first compound 0.8 µM): 0.709
- relative viability (IA-LM; first compound 2.53 µM): 0.828
- relative viability (NCI-H1437; first compound 0.08 µM): 0.486
- relative viability (NCI-H1437; first compound 0.253 µM): 0.504
- relative viability (NCI-H1437; first compound 0.8 µM): 0.454
- relative viability (NCI-H1437; first compound 2.53 µM): 0.53
- relative viability (EBC-1; first compound 0.08 µM): 0.704
- relative viability (EBC-1; first compound 0.253 µM): 0.566
- relative viability (EBC-1; first compound 0.8 µM): 0.584
- relative viability (EBC-1; first compound 2.53 µM): 0.592
- relative viability (NCI-H1703; first compound 0.08 µM): 0.512
- relative viability (NCI-H1703; first compound 0.253 µM): 0.372
- relative viability (NCI-H1703; first compound 0.8 µM): 0.38
- relative viability (NCI-H1703; first compound 2.53 µM): 0.346
- relative viability (ABC-1; first compound 0.08 µM): 0.348
- relative viability (ABC-1; first compound 0.253 µM): 0.289
- relative viability (ABC-1; first compound 0.8 µM): 0.374
- relative viability (ABC-1; first compound 2.53 µM): 0.316
- relative viability (SW 1573; first compound 0.08 µM): 1
- relative viability (SW 1573; first compound 0.253 µM): 0.847
- relative viability (SW 1573; first compound 0.8 µM): 1.05
- relative viability (SW 1573; first compound 2.53 µM): 1.28
- relative viability (Calu-6; first compound 0.08 µM): 0.929
- relative viability (Calu-6; first compound 0.253 µM): 0.888
- relative viability (Calu-6; first compound 0.8 µM): 1.02
- relative viability (Calu-6; first compound 2.53 µM): 1.06
- relative viability (NCI-H1299; first compound 0.08 µM): 0.999
- relative viability (NCI-H1299; first compound 0.253 µM): 0.998
- relative viability (NCI-H1299; first compound 0.8 µM): 0.965
- relative viability (NCI-H1299; first compound 2.53 µM): 1.08

Compound: O=c1cc(-c2cccc3c2Sc2ccccc2S3)oc(N2CCOCC2)c1 + CC(C)C[C@H](NC(=O)[C@H](Cc1ccccc1)NC(=O)c1cnccn1)B(O)O [Bortezomib] (partner 0.002 µM)
- relative viability (COR-L23; first compound 0.08 µM): 1.13
- relative viability (COR-L23; first compound 0.253 µM): 1.49
- relative viability (COR-L23; first compound 0.8 µM): 1.2
- relative viability (COR-L23; first compound 2.53 µM): 1
- relative viability (COR-L23; first compound 8 µM): 1.48
- relative viability (NCI-H1651; first compound 0.08 µM): 0.925
- relative viability (NCI-H1651; first compound 0.253 µM): 1.08
- relative viability (NCI-H1651; first compound 0.8 µM): 0.935
- relative viability (NCI-H1651; first compound 2.53 µM): 0.906
- relative viability (NCI-H1651; first compound 8 µM): 0.964
- relative viability (ChaGo-K-1; first compound 0.08 µM): 0.915
- relative viability (ChaGo-K-1; first compound 0.253 µM): 1.02
- relative viability (ChaGo-K-1; first compound 0.8 µM): 1.28
- relative viability (ChaGo-K-1; first compound 8 µM): 1.29
- relative viability (IA-LM; first compound 0.08 µM): 0.833
- relative viability (IA-LM; first compound 0.253 µM): 0.946
- relative viability (IA-LM; first compound 0.8 µM): 0.799
- relative viability (IA-LM; first compound 2.53 µM): 0.949
- relative viability (IA-LM; first compound 8 µM): 0.905
- relative viability (NCI-H1437; first compound 0.08 µM): 0.51
- relative viability (NCI-H1437; first compound 0.253 µM): 0.626
- relative viability (NCI-H1437; first compound 0.8 µM): 0.473
- relative viability (NCI-H1437; first compound 2.53 µM): 0.555
- relative viability (NCI-H1437; first compound 8 µM): 0.543
- relative viability (EBC-1; first compound 0.08 µM): 0.602
- relative viability (EBC-1; first compound 0.253 µM): 0.535
- relative viability (EBC-1; first compound 0.8 µM): 0.546
- relative viability (EBC-1; first compound 2.53 µM): 0.424
- relative viability (EBC-1; first compound 8 µM): 0.448
- relative viability (NCI-H1703; first compound 0.253 µM): 0.356
- relative viability (NCI-H1703; first compound 0.8 µM): 0.384
- relative viability (NCI-H1703; first compound 2.53 µM): 0.346
- relative viability (NCI-H1703; first compound 8 µM): 0.285
- relative viability (ABC-1; first compound 0.08 µM): 0.364
- relative viability (ABC-1; first compound 0.253 µM): 0.312
- relative viability (ABC-1; first compound 0.8 µM): 0.249
- relative viability (ABC-1; first compound 2.53 µM): 0.333
- relative viability (ABC-1; first compound 8 µM): 0.323
- relative viability (SW 1573; first compound 0.08 µM): 0.976
- relative viability (SW 1573; first compound 0.253 µM): 1.13
- relative viability (SW 1573; first compound 0.8 µM): 1.09
- relative viability (SW 1573; first compound 2.53 µM): 1.05
- relative viability (SW 1573; first compound 8 µM): 1.09
- relative viability (Calu-6; first compound 0.08 µM): 0.91
- relative viability (Calu-6; first compound 0.253 µM): 1.02
- relative viability (Calu-6; first compound 0.8 µM): 1.01
- relative viability (Calu-6; first compound 2.53 µM): 0.974
- relative viability (Calu-6; first compound 8 µM): 0.976
- relative viability (NCI-H1299; first compound 0.08 µM): 1.02
- relative viability (NCI-H1299; first compound 0.253 µM): 1.02
- relative viability (NCI-H1299; first compound 0.8 µM): 1.05
- relative viability (NCI-H1299; first compound 2.53 µM): 0.997
- relative viability (NCI-H1299; first compound 8 µM): 1.01

Reference: the supplement of paper PMC10307832
